pIC50: −log10 of the molar value. Structures can show the parent of a compound that is named as a salt.
How the values were obtained:
[1] = system: human colon carcinoma HT-29; assay: Proliferation assay (IC50) under aerobic and hypoxic conditions, HT-29; format: cell-based; conditions: for RHT: HT-29, ratio Tirapazamine/test compound under hypoxic conditions; for HCR: HT-29, ratio of IC50 under aerobic and hypoxic conditions; for pIC50: Homo sapiens, HT-29, hypoxic (anoxia <0.001% O2), 4 h exposure
Protocol: (§1) Evaluation of the Cytotoxicity of Compounds by Proliferation Assay (IC50) Under Aerobic and Hypoxic Conditions.
(§2) Compounds representative of the invention were evaluated under both aerobic and hypoxic conditions in a proliferation assay (IC50), using two cell lines: human colon carcinoma HT-29, and human cervical carcinoma SiHa.
(§3) Drug exposures were performed in 96-well plates (Nunc) using either a 37° C. humidified incubator (20% O2, 5% CO2) or in the incubator compartment (37° C.) of an anaerobic chamber (Shell Lab) where palladium catalyst scrubbed gas (90% N2, 5% H2, 5% CO2) ensures severe anoxia (<0.001% O2). For each experiment, compounds were simultaneously tested under both oxic and hypoxic conditions against the HT-29 cell line and included TPZ as an independent internal control at the front and back of the assay (n=2). Final data was pooled from a series of seven independent experiments and is calculated using inter-experimental means. In all cases, 8-methyl-5-nitroquinoline was used as a second internal control to confirm that strict hypoxia was present during the experiment. (Siim et al. Br. J. Cancer 1994, 70, 596-603). Cell cultures were grown in αMEM (Gibco) containing 5% heat inactivated FCS and maintained in exponential growth phase. For each individual experiment an appropriate number of cells were seeded (HT-29=1000) into wells in αMEM÷10% FCS+10 mM added glucose+100 μM 2′-deoxycytidine (2′dCyd), and allowed to attach for 3 h. High glucose (final concentration 17 mM) and the presence of 2′-dCyd minimize hypoxia-induced cell cycle arrest. Replicates were then exposed to BTOs, using 2-fold serial dilutions in triplicate, for a further 4 h. Subsequently cells were washed free of compound using complete media (without glucose/2′-dCyd) and allowed to grow for 5 (oxic) or 6 (anoxic) days. Plates were stained as described previously (Wilson et al., J. Med. Chem. 1989, 32, 31-38) and IC50 values determined.
(§4) IC50=The concentration of drug (in micromolar) to reduce viable cell numbers to 50% of those of control cell cultures grown under the same conditions but not exposed to drug
(§5) RHT=Relative hypoxic toxicity is defined as the ratio of concentrations of Tirapazamine/test compound to give equal cell killing under hypoxic conditions.
(§6) HCR=Hypoxic cytotoxicity ratio is defined as the ratio of drug concentrations under aerobic and hypoxic condition to produce equal cell survival (50%) determined by proliferation assay

[2] = system: murine SCCVII; assay: Clonogenic assay under aerobic and hypoxic conditions, SCCVII; format: cell-based; conditions: SCVIII cells; for IC90: Mus musculus, 1 h, hypoxic, 60 min drug exposure, SN (hypoxic), read-out: C10 hypoxic; for HCR: ratio of C10 under aerobic and hypoxic conditions; for RHT: ratio of hypoxic TPZ C10 to hypoxic compound C10
Protocol: Evaluation of the Cytotoxicity of Compounds by Clonogenic Assay Under Aerobic and Hypoxic Conditions.
Compounds representative of the invention were evaluated under both aerobic and hypoxic conditions in clonogenic assays, using three cell lines: human colon carcinoma HT-29, murine SCCVII, and human lung adenocarcinoma LXFL. Clonogenic survival was determined using aerobic and hypoxic SCCVII cell suspensions. Drug exposures were performed using continuously stirred and gassed single cell suspensions (10^6 cells/mL) at 37° C., equilibrated with 5% CO2 in air or N2 for 60 min before drug addition. After a 60 min drug exposure cells were washed by centrifugation and plated to determine colony formation Cytotoxicity was measured as the concentration required to reduce plating efficiency to 10% of controls (C10). The hypoxic cytotoxicity ratio (HCR) was determined as the ratio of the C10 values under aerobic and hypoxic conditions. The relative hypoxic toxicity (RHT) was determined as the ratio of hypoxic TPZ C10 to hypoxic BTO C10. Abbreviations used in Table 2 are:
C10=The concentration of drug (in micromolar) to reduce viable cell numbers to 10% of those of control cell cultures grown under the same conditions but not exposed to drug
as §5
HCR=Hypoxic cytotoxicity ratio is defined as the ratio of drug concentrations under aerobic and hypoxic condition to produce equal cell survival (10%) determined by clonogenic assay

[3] = system: human cervical carcinoma SiHa; assay: Proliferation assay (IC50) under aerobic and hypoxic conditions, SiHa; format: cell-based; conditions: for pIC50: Homo sapiens, hypoxic, 4 h exposure; for RHT: ratio Tirapazamine/test compound under hypoxic conditions; for HCR: ratio of IC50 under aerobic and hypoxic conditions
Protocol: as §1, §2, §3, §4, §5, §6

Row | melting point | pIC50 [1] | Compound | RHT [1] | HCR [1] | further results
1 | 128 to 130 °C | – | O=C(NCCOCCNc1n[n+]([O-])c2ccccc2[n+]1[O-])c1cccc2ccc(-c3ccncc3)nc12 [Compound 26, N-(2-{2-[(1,4-Dioxido-1,2,4-benzotriazin-3-yl)amino]ethoxy}ethyl)-2-(4-pyridinyl)-8-quinolinecarboxamide] | – | – | –
2 | – | 6.65 | Cc1ccc2c(c1)[n+]([O-])c(NCCCN(C)CCCNC(=O)c1cccc3cc4ccccc4nc13)n[n+]2[O-] [Compound 85, N-[3-(Methyl{3-[(6-methyl-1,4-dioxido-1,2,4-benzotriazin-3-yl)amino]propyl}amino)propyl]-4-acridinecarboxamide] | 26 | 134 | –
3 | 119 to 122 °C | – | Cc1ccc2c(c1)[n+]([O-])nc(NCCCNCCCNC(=O)c1cccc3nc4cccc(C)c4nc13)[n+]2[O-] [Compound 77, 9-Methyl-N-[3-({3-[(7-methyl-1,4-dioxido-1,2,4-benzotriazin-3-yl)amino]propyl}amino)propyl]-1-phenazinecarboxamide] | – | – | –
4 | – | – | O=C(NCCCNc1n[n+]([O-])c2ccccc2[n+]1[O-])c1cccc2cc3ccccc3nc12 [Compound 17, N-{3-[(1,4-Dioxido-1,2,4-benzotriazin-3-yl)amino]propyl}-4-acridinecarboxamide] | – | – | IC90 [2]: 4800 nM; HCR [2]: >6.3; RHT [2]: 1.94
5 | 80 to 83 °C | – | Cc1ccc2c(c1)[n+]([O-])c(NCCCNCCCNC(=O)c1cccc3nc4cccc(C)c4nc13)n[n+]2[O-] [Compound 88, 9-Methyl-N-[3-({3-[(6-methyl-1,4-dioxido-1,2,4-benzotriazin-3-yl)amino]propyl}amino)propyl]-1-phenazinecarboxamide] | – | – | –
6 | – | 6.65 | Cc1cccc2cc3cccc(C(=O)NCCCN(C)CCCNc4n[n+]([O-])c5ccccc5[n+]4[O-])c3nc12 [Compound 44, N-{3-[{3-[(1,4-dioxido-1,2,4-benzotriazin-3-yl)amino]propyl}(methyl)amino]-propyl}-5-methyl-4-acridinecarboxamide] | 25.7 | 72.7 | IC90 [2]: 160 nM; HCR [2]: >187; RHT [2]: 56.3
7 | 140 to 145 °C | – | CN(C)CCCC(=O)c1cc(NC(=O)c2cc(NC(=O)CCCNc3n[n+]([O-])c4ccccc4[n+]3[O-])cn2C)cn1C [Compound 112, N-{5-[4-(Dimethylamino)butanoyl]-1-methyl-1H-pyrrol-3-yl}-4-({4-[(1,4-dioxido-1,2,4-benzotriazin-3-yl)amino]butanoyl}amino)-1-methyl-1H-pyrrole-2-carboxamide] | – | – | –
8 | 173 °C | – | CN(CCCNC(=O)c1cccc2nc3ccccc3nc12)CCCc1n[n+]([O-])c2ccccc2[n+]1[O-] (as salt: hydrochloride) [Compound 63, N-{3-[[3-(1,4-Dioxido-1,2,4-benzotriazin-3-yl)propyl](methyl)amino]propyl}-1-phenazinecarboxamide] | – | – | –
9 | 202 °C (dec.) | – | O=C(CCNc1ccnc2cc(Cl)ccc12)NCCCNc1n[n+]([O-])c2ccccc2[n+]1[O-] [Compound 65, 3-[(7-Chloro-4-quinolinyl)amino]-N-{3-[(1,4-dioxido-1,2,4-benzotriazin-3-yl)amino]propyl}propanamide] | – | – | –
10 | 203 to 207 °C | – | O=C(NCCOCCNc1n[n+]([O-])c2ccccc2[n+]1[O-])c1cccc2[nH]c(-c3ccccc3)nc12 [Compound 25, N-(2-{2-[(1,4-Dioxido-1,2,4-benzotriazin-3-yl)amino]ethoxy}ethyl)-2-phenyl-1H-benzimidazole-4-carboxamide] | – | – | –
11 | – | 6.74 | CN(CCNC(=O)c1cccc2cc3ccccc3nc12)CCNc1n[n+]([O-])c2ccccc2[n+]1[O-] [Compound 95, N-{2-[{2-[(1,4-Dioxido-1,2,4-benzotriazin-3-yl)amino]ethyl}(methyl)amino]ethyl}-4-acridinecarboxamide] | 71 | 74 | pIC50 [3]: 7.12; RHT [3]: 48; HCR [3]: 89; IC90 [2]: 1000 nM; HCR [2]: 400; RHT [2]: 11
12 | – | 6.91 | COCCOc1ccc2c(c1)[n+]([O-])nc(NCCCN(C)CCCNC(=O)c1cccc3cc4ccccc4nc13)[n+]2[O-] [Compound 55, N-{3-[(3-{[7-(2-Methoxyethoxy)-1,4-dioxido-1,2,4-benzotriazin-3-yl]amino}propyl)(methyl)amino]propyl}-4-acridinecarboxamide] | 47 | 97 | pIC50 [3]: 7.30; RHT [3]: 72; HCR [3]: 124; IC90 [2]: 1100 nM; HCR [2]: 63.6; RHT [2]: 10
13 | 192 °C | – | O=C(NCCCNc1n[n+]([O-])c2ccccc2[n+]1[O-])c1cccc2cc3ccccc3nc12 (as salt: hydrochloride) [Compound 17, N-{3-[(1,4-Dioxido-1,2,4-benzotriazin-3-yl)amino]propyl}-4-acridinecarboxamide] | – | – | –
14 | 196 to 198 °C | – | O=C(NCCCCCCNc1n[n+]([O-])c2ccccc2[n+]1[O-])c1ccnc2ccccc12 [Compound 13, N-{6-[(1,4-Dioxido-1,2,4-benzotriazin-3-yl)amino]hexyl}-4-quinolinecarboxamide] | – | – | –
15 | 196 to 198 °C | – | O=C(NCCCCCCNc1n[n+]([O-])c2ccccc2[n+]1[O-])c1cccc2cc3ccccc3nc12 [Compound 12, N-{6-[(1,4-Dioxido-1,2,4-benzotriazin-3-yl)amino]hexyl}-4-acridinecarboxamide] | – | – | –
16 | – | 7.10 | O=C(NCCNCCNc1n[n+]([O-])c2ccccc2[n+]1[O-])c1cccc2cc3ccccc3nc12 [Compound 37, N-[2-({2-[(1,4-Dioxido-1,2,4-benzotriazin-3-yl)amino]ethyl}amino)ethyl]-4-acridinecarboxamide] | 74 | 160 | –
17 | – | 7.68 | CN(CCCNC(=O)c1cccc2cc3ccccc3nc12)CCCc1n[n+]([O-])c2ccccc2[n+]1[O-] [Compound 62, N-{3-[[3-(1,4-dioxido-1,2,4-benzotriazin-3-yl)propyl](methyl)amino]propyl}-4-acridinecarboxamide] | 274 | 157 | –
18 | – | 6.95 | CN(CCCNC(=O)c1cccc2ccc(-c3ccncc3)nc12)CCCNc1n[n+]([O-])c2ccccc2[n+]1[O-] [Compound 43, N-{3-[{3-[(1,4-dioxido-1,2,4-benzotriazin-3-yl)amino]propyl}(methyl)amino]-propyl}-2-(4-pyridyl)-8-quinolinecarboxamide] | 51.4 | 119 | IC90 [2]: 1400 nM; HCR [2]: 10; RHT [2]: 5.7
19 | – | 6.29 | CN(CCCNC(=O)c1cccc2cccnc12)CCCNc1n[n+]([O-])c2ccccc2[n+]1[O-] [Compound 42, N-{3-[{3-[(1,4-Dioxido-1,2,4-benzotriazin-3-yl)amino]propyl}(methyl)amino]propyl}-8-quinolinecarboxamide] | 11.2 | 86.2 | –
20 | – | 7.47 | CN(CCCNC(=O)c1cccc2nc3ccccc3nc12)CCCc1n[n+]([O-])c2ccccc2[n+]1[O-] [Compound 63, N-{3-[[3-(1,4-Dioxido-1,2,4-benzotriazin-3-yl)propyl](methyl)amino]propyl}-1-phenazinecarboxamide] | 167 | 129 | –

Source: patent US20070191372A1, “Dna-targeted benzotriazine 1,4-dioxides and their use in cancer therapy” (Auckland Uniservices Limited, priority 2002, published 2007)
